Laboratory results taken from ChEMBL document CHEMBL1150869, “Bombardolides: new antifungal and antibacterial gamma-lactones from the coprophilous fungus Bombardioidea anartia” (2001).

Tests used:
Assay type in all cases: functional
Conditions in all cases: read-out: IZ
Staphylococcus aureus = assay: Antimicrobial activity against Staphylococcus aureus ATCC 29213 at 200 ug/disk by standard disk diffusion method
Bacillus subtilis = assay: Antimicrobial activity against Bacillus subtilis ATCC 6051 at 200 ug/disk by standard disk diffusion method
Candida albicans = assay: Antimicrobial activity against Candida albicans ATCC 10231 at 200 ug/disk by standard disk diffusion method

Structure (SMILES): CC/C=C1C=C(/C=C/C(=O)O)C(=O)O/1
- zone of inhibition at 200 µg/disc (Staphylococcus aureus): 18 mm
- zone of inhibition at 200 µg/disc (Bacillus subtilis): 26 mm

Structure (SMILES): CCCCC(O)c1cccc(O)c1 (centres undefined)
- zone of inhibition at 200 µg/disc (Staphylococcus aureus): 19 mm
- zone of inhibition at 200 µg/disc (Bacillus subtilis): 12 mm

Structure (SMILES): CC/C=C1C=C(/C=C/CO)C(=O)O/1
- zone of inhibition at 200 µg/disc (Candida albicans): 35 mm
- zone of inhibition at 200 µg/disc (Staphylococcus aureus): 14 mm
- zone of inhibition at 200 µg/disc (Bacillus subtilis): 19 mm

Structure (SMILES): CC/C=C1/C=C(CCCO)C(=O)O1 [(E/Z)-BOMBARDOLIDE B]
- zone of inhibition at 200 µg/disc (Bacillus subtilis): 11 mm

Structure (SMILES): CCCC1C=C(/C=C/CO)C(=O)O1 (centres undefined) [BOMBARDOLIDE D]
- zone of inhibition at 200 µg/disc (Candida albicans): 20 mm
